Data as given in ChEMBL document CHEMBL6078677, “Discovery and optimization of tetrahydroacridine derivatives as a novel class of antibiotics against multidrug-resistant Gram-positive pathogens by targeting type I signal peptidase and disrupting bacterial membrane” (Eur J Med Chem, 2025).
Values after ≈ are worked out from the molar mass of the structure shown. Active and inactive are the calls of the source. No cut-off for these calls is given here.

Experiments:
Staphylococcus aureus [1] = test: Antimicrobial activity against Staphylococcus aureus ATCC 29213 assessed as inhibition of visible growth of bacteria incubated for 20 hrs by broth microdilution method; assay type: functional
Enterococcus faecalis [2] = test: microbe, parasite or virus in culture; assay type: functional; settings: SF23-1, time 20 hrs
Description: Antimicrobial activity against Enterococcus faecalis SF23-1 harboring erythromycin-resistance rRNA methylase B, tetracycline efflux protein L and chloramphenicol-florfenicol resistance methylase assessed as inhibition of visible growth of bacteria incubated for 20 hrs by broth microdilution method

[3] = Metabolic stability in human liver microsomes assessed as hepatic extraction ratio at 100 uM preincubated for 5 mins followed by NADPH addition and measured upto 60 mins by LC-MS/MS analysis; assay type: ADME, Microsome; settings: time < 65 min, read-out: ERH
Staphylococcus aureus [4] = test: Bactericidal activity against Staphylococcus aureus ATCC 29213 assessed as bacterial killing at 8 times of MIC measured within 12 hrs by time-kill kinetics assay; assay type: functional, organism-based
[5] = Metabolic stability in mouse liver microsomes assessed as half-life at 100 uM preincubated for 5 mins followed by NADPH addition and measured upto 60 mins by LC-MS/MS analysis; assay type: ADME, Microsome; settings: time < 65 min
[6] = Cytotoxicity against human Caco-2 cells assessed as cell viability at 2 times of MIC incubated for 48 hrs by CCK8 assay (reference value: 99.54 %); assay type: toxicity, cell-based; settings: read-out: Activity
[7] = Cytotoxicity against human Caco-2 cells assessed as cell viability at 8 times of MIC incubated for 48 hrs by CCK8 assay (reference value: 99.54 %); assay type: toxicity, cell-based; settings: read-out: Activity
[8] = Metabolic stability in human liver microsomes assessed as intrinsic clearance at 100 uM preincubated for 5 mins followed by NADPH addition and measured upto 60 mins by LC-MS/MS analysis; assay type: ADME, Microsome; settings: time < 65 min, read-out: CLH
[9] = Hemolytic activity in Kunming mouse erythrocytes assessed as hemolysis at 2 times of MIC measured after 1 hrs by absorbance based assay relative to control; assay type: toxicity, cell-based, Erythrocyte; settings: read-out: Activity
Staphylococcus aureus [10] = test: Drug resistance, ratio of MIC for Staphylococcus aureus ATCC 29213 measured after 28 days to MIC for Staphylococcus aureus ATCC 29213 measured after 20 hrs; assay type: functional
Staphylococcus aureus [11] = test: Antibacterial activity against methicillin-resistant Staphylococcus aureus YZSA-24 infected in cyclophosphamide-induced neutrophil depleted female ICR mouse model of skin infection assessed as log reduction in bacterial load at 1 %, TOP preadministered with cyclophosphamide for 5 days followed by bacterial administration and measured after 25 hrs of compound administration relative to ampicillin group; assay type: functional
[12] = Hemolytic activity in Kunming mouse erythrocytes assessed as hemolysis at 8 times of MIC measured after 1 hrs by absorbance based assay relative to control; assay type: toxicity, cell-based, Erythrocyte; settings: read-out: Activity
[13] = Cytotoxicity against human Caco-2 cells assessed as reduction in cell viability incubated for 48 hrs by CCK8 assay; assay type: toxicity, cell-based
Enterococcus faecalis [14] = test: Antimicrobial activity against Enterococcus faecalis J2 harboring erythromycin-resistance rRNA methylase B and oxazolidinone phenicol transferable resistance gene assessed as inhibition of visible growth of bacteria incubated for 20 hrs by broth microdilution method; assay type: functional
[15] = Hemolytic activity in Kunming mouse erythrocytes assessed as hemolysis at 4 times of MIC measured after 1 hrs by absorbance based assay relative to control; assay type: toxicity, cell-based, Erythrocyte; settings: read-out: Activity
[16] = Cytotoxicity against human HEp-2 cells assessed as cell viability at 4 times of MIC incubated for 48 hrs by CCK8 assay (reference value: 100 %); assay type: toxicity, cell-based; settings: read-out: Activity
Staphylococcus aureus [17] = test: Bactericidal activity against Staphylococcus aureus ATCC 29213 assessed as bacterial eradication at 4 times of MIC measured after 24 hrs by time-kill kinetics assay relative to control; assay type: functional
Acinetobacter baumannii = test: Antimicrobial activity against Acinetobacter baumannii 7979 assessed as inhibition of visible growth of bacteria incubated for 20 hrs by broth microdilution method; assay type: functional
[18] = Acute toxicity in ICR mouse model assessed as change in liver pathology at 25 to 100 mg/kg, IG administered for 7 days by H and E staining based analysis; assay type: organism-based; settings: in vivo, po, 168 h, dose 25-100 mg/kg, time 7 day
Staphylococcus aureus [19] = test: Antibiofilm activity in Staphylococcus aureus ATCC 29213 assessed as reduction in biofilm formation at 0.5 to 2 times of MIC measured after 72 hrs by SEM analysis; assay type: functional, organism-based
[20] = Acute toxicity in ICR mouse model assessed as change in kidney pathology at 25 to 100 mg/kg, IG administered for 7 days by H and E staining based analysis; assay type: organism-based; settings: in vivo, po, 168 h, dose 25-100 mg/kg, time 7 day
Streptococcus pyogenes = test: Antimicrobial activity against Streptococcus pyogenes DL02 harboring erythromycin-resistance rRNA methylase B assessed as inhibition of visible growth of bacteria incubated for 20 hrs by broth microdilution method; assay type: functional
[21] = Hemolytic activity in Kunming mouse erythrocytes assessed as hemolysis at 1 time of MIC measured after 1 hrs by absorbance based assay relative to control; assay type: toxicity, cell-based, Erythrocyte; settings: read-out: Activity
Staphylococcus aureus [22] = test: Bactericidal activity against Staphylococcus aureus ATCC 29213 assessed as decrease in bacterial number measured within 12 hrs by time-kill kinetics assay; assay type: functional, organism-based
[23] = Cytotoxicity against human HEp-2 cells assessed as cell viability at 8 times of MIC incubated for 48 hrs by CCK8 assay (reference value: 100 %); assay type: toxicity, cell-based; settings: read-out: Activity
[24] = Metabolic stability in rat liver microsomes assessed as half-life at 100 uM preincubated for 5 mins followed by NADPH addition and measured upto 60 mins by LC-MS/MS analysis; assay type: ADME, Microsome; settings: time < 65 min
[25] = Cytotoxicity against human HEp-2 cells assessed as reduction in cell viability incubated for 48 hrs by CCK8 assay; assay type: toxicity, cell-based
[26] = Cytotoxicity against human Caco-2 cells assessed as cell viability at 4 times of MIC incubated for 48 hrs by CCK8 assay (reference value: 99.54 %); assay type: toxicity, cell-based; settings: read-out: Activity
Escherichia coli = test: Antimicrobial activity against Escherichia coli ATCC 25922 assessed as inhibition of visible growth of bacteria incubated for 20 hrs by broth microdilution method; assay type: functional
Cell membrane [27] = test: Disruption of cell membrane integrity in Staphylococcus aureus ATCC 29213 assessed as increase in red fluorescence intensity incubated for 4 hrs by SYTO-9/PI staining based LIVE/DEAD Baclight bacterial viability assay; assay type: subcellular
[28] = Metabolic stability in mouse liver microsomes assessed as hepatic extraction ratio at 100 uM preincubated for 5 mins followed by NADPH addition and measured upto 60 mins by LC-MS/MS analysis; assay type: ADME, Microsome; settings: time < 65 min, read-out: ERH
[29] = Acute toxicity in ICR mouse model assessed as change in spleen pathology at 25 to 100 mg/kg, IG administered for 7 days by H and E staining based analysis; assay type: organism-based; settings: in vivo, po, 168 h, dose 25-100 mg/kg, time 7 day
Enterococcus faecalis [30] = test: Antimicrobial activity against Enterococcus faecalis ES01 harboring erythromycin-resistance rRNA methylase B and vanB-type vancomycin-resistance locus assessed as inhibition of visible growth of bacteria incubated for 20 hrs by broth microdilution method; assay type: functional
Cell membrane [31] = test: Disruption of cell membrane integrity in Staphylococcus aureus ATCC 29213 assessed as appearance of shriveled surface at 0.5 to 2 times of MIC by scanning electron microscopic analysis; assay type: subcellular
Staphylococcus aureus [32] = test: Antibiofilm activity against Staphylococcus aureus ATCC 29213 assessed as eradication of preformed biofilm measured after 72 hrs by crystal violet staining based analysis; assay type: functional, organism-based
[33] = Metabolic stability in human liver microsomes assessed as half-life at 100 uM preincubated for 5 mins followed by NADPH addition and measured upto 60 mins by LC-MS/MS analysis; assay type: ADME, Microsome; settings: time < 65 min
[34] = Cytotoxicity against human HEp-2 cells assessed as cell viability at 1 time of MIC incubated for 48 hrs by CCK8 assay (reference value: 100 %); assay type: toxicity, cell-based; settings: read-out: Activity
Klebsiella pneumoniae = test: Antimicrobial activity against Klebsiella pneumoniae 9-1 assessed as inhibition of visible growth of bacteria incubated for 20 hrs by broth microdilution method; assay type: functional

With `CC1C/C(=C\c2ccc(-c3ccc(Cl)c(C(F)(F)F)c3)s2)c2nc3ccccc3c(C(=O)O)c2C1` (racemic) the MIC (Staphylococcus aureus [1]) was 1 µg/mL (≈ 1.95 µM), the MIC (Enterococcus faecalis [2]) was 1 µg/mL (≈ 1.95 µM) and the hepatic extraction ratio at 1 h, 100 µM [3] was < 0.27. For the same compound, the Activity (Staphylococcus aureus [4]) was “Active”, the half-life at 100 µM [5] was > 185 min and the viability at 48 h, 2 times of MIC [6] was 96.6%. The viability at 48 h, 8 times of MIC [7] was 72.8%, the microsomal CLint at 100 µM [8] was < 7.5 µL/min/mg and the hemolysis at 1 h, 2 times of MIC [9] was 0%. For the same compound, the Ratio (Staphylococcus aureus [10]) was 2, the Activity (Staphylococcus aureus [11]) was 1.21 log10CFU/ml and the hemolysis at 1 h, 8 times of MIC [12] was 5.4%. It also gave a CC50 at 48 h [13] of 21.9 µg/mL (≈ 42.7 µM), an MIC (Enterococcus faecalis [14]) of 2 µg/mL (≈ 3.89 µM) and a hemolysis at 1 h, 4 times of MIC [15] of 0.65%. The viability at 48 h, 4 times of MIC [16] was 91.4%, the Activity (Staphylococcus aureus [17]) was 100% and the MIC (Acinetobacter baumannii) was > 128 µg/mL. The Activity [18] was “Non-toxic”, the Activity (Staphylococcus aureus [19]) was “Active; Some Sections Appeared To Be Damaged And Broken” and the Activity [20] was “Non-toxic”. The MIC (Streptococcus pyogenes) was 16 µg/mL (≈ 31.1 µM), the hemolysis at 1 h, 1 time of MIC [21] was 0% and the Activity (Staphylococcus aureus [22]) was “Dose-dependent-effect”. The viability at 48 h, 8 times of MIC [23] was 82.5%, the half-life at 100 µM [24] was > 185 min and the CC50 at 48 h [25] was 14.7 µg/mL (≈ 28.5 µM). For the same compound, the viability at 48 h, 4 times of MIC [26] was 92.9%, the MIC (Escherichia coli) was > 128 µg/mL and the Activity (Cell membrane [27]) was “Dose-dependent-effect”. For the same compound, the hepatic extraction ratio at 1 h, 100 µM [28] was < 0.26, the Activity [29] was “Non-toxic” and the MIC (Enterococcus faecalis [30]) was 2 µg/mL (≈ 3.89 µM). For the same compound, the Activity (Cell membrane [31]) was “Active”, the Activity (Staphylococcus aureus [32]) was “Dose-dependent-effect” and the half-life at 100 µM [33] was > 185 min. For the same compound, the viability at 48 h, 1 time of MIC [34] was 96.9% and the MIC (Klebsiella pneumoniae) was > 128 µg/mL.
